# From US20100152434A1, “Protein Kinase-binding Nucleosides and Associated Methods” (priority 2007, published 2010)
# Read-outs that look alike come from different tables or passages of the source.
# Tests used:
# MDA-MB-231/ATCC = test: cells; settings: Homo sapiens, MDA-MB-231
# SK-MEL-5 = test: cells; settings: Homo sapiens, SK-MEL-5
# SF-295 = test: cells; settings: Homo sapiens, SF-295
# NCI/ADR-RES [1] = test: cells; settings: Homo sapiens
# UACC-257 [2] = test: cells; settings: Homo sapiens, UACC-257
# SNB-19 = test: cells; settings: Homo sapiens, SNB-19
# NCI-H522 = test: cells; settings: Homo sapiens, NCI-H522
# NCI/ADR-RES [3] = settings: NCI/ADR-RES (Ovarian Cancer panel)
# NCI-H460 [4] = system: NCI-H460
# UACC-257 [5] = system: UACC-257
# NCI-H460 [6] = test: cells; settings: Homo sapiens, NCI-H460
# LOX IMVI = test: cells; settings: Homo sapiens
# OVCAR-8 = test: cells; settings: Homo sapiens, OVCAR-8
# BT-549 = test: cells; settings: Homo sapiens, BT-549
# [7] = Log10 Concentration −4.0, Molar
# [8] = Log10 Concentration −5.0, Molar
# [9] = Log10 Concentration −6.0, Molar
# [10] = Log10 Concentration −7.0, Molar
# [11] = Log10 Concentration −8.0, Molar
smiles,measurement,setting,value
"CNC(=O)NC[C@H]1O[C@@H](n2cnc3c(NC(=O)Nc4ccccc4)ncnc32)C(O[Si](C)(C)C(C)(C)C)[C@H]1O[Si](C)(C)C(C)(C)C (stereo partly shown) [Compound 25, 2′,3′-Bis-O-(tert-butyldimethylsilyl)-5-deoxy-5′-[(N-methylcarbamoyl)amino]-N^6-(N-phenylcarbamoyl)adenosine]",GI50,MDA-MB-231/ATCC,2.81 µM
same,IC50,MDA-MB-231/ATCC,28.3 µM
same,TGI,SN12C,3.38E−6 Molar
same,Percent Growth,SN12C; [7],−90%
same,Percent Growth,SN12C; [8],−87%
same,Percent Growth,SN12C; [9],98%
same,Percent Growth,SN12C; [10],100%
same,Percent Growth,SN12C; [11],100%
same,GI50,SK-MEL-5,1.98 µM
same,IC50,SK-MEL-5,13.6 µM
same,TGI,OVCAR-5,2.52E−5 Molar
same,Percent Growth,OVCAR-5; [7],−43%
same,Percent Growth,OVCAR-5; [8],29%
same,Percent Growth,OVCAR-5; [9],103%
same,Percent Growth,OVCAR-5; [10],99%
same,Percent Growth,OVCAR-5; [11],96%
same,GI50,SF-295,3.84 µM
same,IC50,SF-295,> 100 µM
same,TGI,OVCAR-4,4.39E−5 Molar
same,Percent Growth,OVCAR-4; [7],−4%
same,Percent Growth,OVCAR-4; [8],7%
same,Percent Growth,OVCAR-4; [9],100%
same,Percent Growth,OVCAR-4; [10],106%
same,Percent Growth,OVCAR-4; [11],106%
same,GI50,NCI/ADR-RES [1],3.72 µM
same,IC50,NCI/ADR-RES [1],> 100 µM
same,TGI,CAKI-1,7.93E−6 Molar
same,Percent Growth,CAKI-1; [7],−33%
same,Percent Growth,CAKI-1; [8],−11%
same,Percent Growth,CAKI-1; [9],96%
same,Percent Growth,CAKI-1; [10],99%
same,Percent Growth,CAKI-1; [11],100%
same,TGI,ACHN,>1.00E−4 Molar
same,Percent Growth,ACHN; [7],2%
same,Percent Growth,ACHN; [8],10%
same,Percent Growth,ACHN; [9],105%
same,Percent Growth,ACHN; [10],108%
same,Percent Growth,ACHN; [11],107%
same,GI50,UACC-257 [2],3.78 µM
same,IC50,UACC-257 [2],> 100 µM
same,GI50,SNB-19,4.57 µM
same,IC50,SNB-19,> 100 µM
same,GI50,NCI-H522,2.39 µM
same,IC50,NCI-H522,> 100 µM
same,TGI,U251,1.08E−5 Molar
same,Percent Growth,U251; [7],−46%
same,Percent Growth,U251; [8],2%
same,Percent Growth,U251; [9],93%
same,Percent Growth,U251; [10],102%
same,Percent Growth,U251; [11],102%
same,TGI,NCI/ADR-RES [3],2.07E−5 Molar
same,Percent Growth,NCI/ADR-RES [3]; Log10 Concentration −4.0 Molar,−21%
same,Percent Growth,NCI/ADR-RES [3]; Log10 Concentration −5.0 Molar,10%
same,Percent Growth,NCI/ADR-RES [3]; Log10 Concentration −6.0 Molar,103%
same,Percent Growth,NCI/ADR-RES [3]; Log10 Concentration −7.0 Molar,109%
same,Percent Growth,NCI/ADR-RES [3]; Log10 Concentration −8.0 Molar,105%
same,TGI,NCI-H322M,>1.00E−4 Molar
same,Percent Growth,NCI-H322M; Log10 Concentration −4.0 Molar,21%
same,Percent Growth,NCI-H322M; Log10 Concentration −5.0 Molar,39%
same,Percent Growth,NCI-H322M; Log10 Concentration −6.0 Molar,105%
same,Percent Growth,NCI-H322M; Log10 Concentration −7.0 Molar,106%
same,Percent Growth,NCI-H322M; Log10 Concentration −8.0 Molar,102%
same,TGI,NCI-H460 [4],3.49E−6 Molar
same,Percent Growth,NCI-H460 [4]; [7],−75%
same,Percent Growth,NCI-H460 [4]; [8],−74%
same,Percent Growth,NCI-H460 [4]; [9],88%
same,Percent Growth,NCI-H460 [4]; [10],93%
same,Percent Growth,NCI-H460 [4]; [11],104%
same,TGI,EKVX,3.06E−5 Molar
same,Percent Growth,EKVX; [7],−9%
same,Percent Growth,EKVX; [8],9%
same,Percent Growth,EKVX; [9],104%
same,Percent Growth,EKVX; [10],111%
same,Percent Growth,EKVX; [11],106%
same,TGI,COLO 205,3.35E−6 Molar
same,Percent Growth,COLO 205; [7],−94%
same,Percent Growth,COLO 205; [8],−95%
same,Percent Growth,COLO 205; [9],105%
same,Percent Growth,COLO 205; [10],111%
same,Percent Growth,COLO 205; [11],109%
same,TGI,TK-10,7.26E−5 Molar
same,Percent Growth,TK-10; [7],−2%
same,Percent Growth,TK-10; [8],14%
same,Percent Growth,TK-10; [9],112%
same,Percent Growth,TK-10; [10],113%
same,Percent Growth,TK-10; [11],110%
same,TGI,UACC-257 [5],2.02E−5 Molar
same,Percent Growth,UACC-257 [5]; [7],−24%
same,Percent Growth,UACC-257 [5]; [8],11%
same,Percent Growth,UACC-257 [5]; [9],104%
same,Percent Growth,UACC-257 [5]; [10],100%
same,Percent Growth,UACC-257 [5]; [11],97%
same,GI50,NCI-H460 [6],1.72 µM
same,IC50,NCI-H460 [6],7.11 µM
same,TGI,SNB-75,3.41E−5 Molar
same,Percent Growth,SNB-75; [7],−12%
same,Percent Growth,SNB-75; [8],14%
same,Percent Growth,SNB-75; [9],73%
same,Percent Growth,SNB-75; [10],95%
same,Percent Growth,SNB-75; [11],94%
same,GI50,LOX IMVI,1.82 µM
same,IC50,LOX IMVI,62.1 µM
same,GI50,OVCAR-8,4.01 µM
same,IC50,OVCAR-8,> 100 µM
same,GI50,BT-549,2.92 µM
same,IC50,BT-549,> 100 µM
